Measurements from patent US20190136321A1, “USE OF TRANSLATIONAL PROFILING TO IDENTIFY TARGET MOLECULES FOR THERAPEUTIC TREATMENT” (The Regents of The University of California, priority 2013, published 2019).

Experiments:
[1] = tested on: 4EBP1, p70S6K1/2 and AKT; assay: Western blot of downstream mTOR effectors in PC3 cells; format: cell-based, human; details: 2.5 μM PP242, 3 hrs
Description: Cells were washed with PBS and lysed in 1× cell lysis buffer (Cell Signaling) for 15 min at 4° C. Lysates were sonicated briefly, clarified by centrifugation for 15 min at 14, 000 rpm, and supernatants were then collected. Protein concentration in the soluble fraction was determined by BCA protein assay (Thermo Scientific). A 4-20% Bis-Tris gradient gel (Invitrogen) was used to resolve 20 μg of protein and transferred to nitrocellulose membrane. The resulting membranes were blocked for 1 hr at room temperature with Odyssey blocking solution (LI-COR) and then incubated with primary antibodies at 4° C. overnight. The following day, the blots were washed 3 times, 10 min each in TBST, and incubated with IR-conjugated goat anti-rabbit IgG secondary antibody (IRDye 800 CW at 1:20,000; LI-COR) for 1 hour at room temperature. The blots were then washed, scanned, and specific proteins were detected using the LI-COR Odyssey infrared imager. […] Actin was used as a loading amount control.

[2] = tested on: PC3 cells; assay: Ribosome profiling and RNA-seq of PC3 cells (translational efficiency, mRNA abundance); format: cell-based, human;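 further: mRNA is RNA-seq average read density per codon over the coding sequence, translational efficiency is ribosome footprint over RNA-seq density, scaled so the median gene equals 1.0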
Description: Given the critical role for mTOR in prostate cancer, PC3 human prostate cancer cells, in which mTOR is constitutively hyperactivated, were used to delineate translationally controlled gene expression networks upon complete or partial mTOR inhibition. Ribosome profiling was optimized to assess quantitatively ribosome occupancy genome-wide in cancer cells.
Cells were subsequently treated with cycloheximide (100 μg ml^−1) and detergent lysis was performed in the dish. The lysate was treated with DNase and clarified, and a sample was taken for RNA-seq analysis. Lysates were subjected to ribosome footprinting by nuclease treatment. Ribosome-protected fragments were purified, and deep sequencing libraries were generated from these fragments, as well as from poly(A) mRNA purified from non-nuclease-treated lysates.
Ribosome footprint and RNA-seq sequencing reads were aligned against a library of transcripts from the UCSC Known Genes database GRCh37/hg19. The first 25 nucleotides of each read were aligned using Bowtie and this initial alignment was then extended to encompass the full fragment-derived portion of the sequencing read while excluding the linker sequence. Read density profiles were then constructed for the canonical transcript of each gene, using only reads with 0 or 1 total mismatches between the read sequence and the reference sequence, comprised of the transcript fragment followed by the linker sequence. Footprint reads were assigned to an A site nucleotide at position +15 to +17 of the alignment, based on the total fragment length; mRNA reads were assigned to the first nucleotide of the alignment. The average read density per codon was then computed for the coding sequence of each transcript, excluding the first 15 and last 5 codons, which can display atypical ribosome accumulation.
Average read density was used as a measure of mRNA abundance (RNA-seq reads) and of protein synthesis (ribosome profiling reads). For most analyses, genes were filtered to require at least 256 reads in the relevant RNA-seq samples. Translational efficiency was computed as the ratio of ribosome footprint read density to RNA-seq read density, scaled to normalize the translational efficiency of the median gene to 1.0 after excluding regulated genes (log2 fold-change ±1.5 after normalizing for the all-gene median). Changes in protein synthesis, mRNA abundance and translational efficiency were similarly computed as the ratio of read densities between different samples, normalized to give the median gene a ratio of 1.0. This normalization corrects for differences in the absolute number of sequencing reads obtained for different libraries.

[3] = tested on: SW620 cells; assay: Western blot of phosphorylation of protein translation components in SW620 cells; format: cell-based, human; details: PP242 10 μM
Description: SW620 cells (ATCC, passage 12) were seeded at about 75% confluence 24 hrs prior to drug treatment. […] About 6×10^6 cells/10 cm plate and about 1×10^6 cells/well of a 6-well plate were harvested for ribosome profiling and Western blot analysis, respectively, following drug treatment.
Cells were washed with PBS and lysed in 1× cell lysis buffer (Cell Signaling) for 15 min at 4° C. Lysates were sonicated briefly, clarified by centrifugation for 15 min at 14, 000 rpm, and supernatants were then collected. Protein concentration in the soluble fraction was determined by BCA protein assay (Thermo Scientific). A 4-20% Bis-Tris gradient gel (Invitrogen) was used to resolve 20 μg of protein and transferred to nitrocellulose membrane. The resulting membranes were blocked for 1 hr at room temperature with Odyssey blocking solution (LI-COR) and then incubated with primary antibodies at 4° C. overnight. The following day, the blots were washed 3 times, 10 min each in TBST, and incubated with IR-conjugated goat anti-rabbit IgG secondary antibody (IRDye 800 CW at 1:20,000; LI-COR) for 1 hour at room temperature. The blots were then washed, scanned, and specific proteins were detected using the LI-COR Odyssey infrared imager. The following antibodies from Cell Signaling were used at 1:1000 dilution: anti-phospho-eIF4E(Ser209)(#9741), anti-phospho-rpS6(Ser235/236)(#4858), anti-phospho-ERK1/2(Thr202/Tyr204)(#4370), anti-phospho-p70S6K(Thr421/Ser424)(#9204), anti-phospho-p90RSK(Thr359/Ser363)(#9344), anti-phospho-4EBP(Ser65), anti-phospho-pAKT(Ser473), anti-phospho-eIF4E(Ser209), and anti-β-actin (#4970). Actin was used as a loading amount control.

[4] = tested on: Normal human lung fibroblasts; assay: Ribosomal profiling of TGF-β treated fibroblasts; format: cell-based
Description: (§1) On Day 0, fibroblasts were seeded and cultured under normal conditions overnight. On Day 1, media was removed, cells were washed with PBS and then incubated for 48 hrs in serum free media (DMEM supplemented with penicillin, streptomycin, and glutamax). On Day 3, media was removed and cells were cultured for 24 hrs with fresh serum free media ±PAMi and ±10 ng/ml TGF-β. After this 24 hour incubation, about 6×10^6 cells/10 cm plate and about 1×10^6 cells/well of a 6-well plate were used for ribosomal profiling and western blot analysis, respectively.
Cells were washed with cold PBS supplemented with cycloheximide and lysed with 1× mammalian lysis buffer for 10 min on ice. Lysates were clarified by centrifugation for 10 min at 14,000 rpm and supernatants were collected. Cell lysates were processed to generate the ribosomal protected fragments and total mRNA according to the instructions included with the ARTseq Ribosome Profiling Kit. Sequencing of total RNA (RNA) and of ribosome-protected fragments of RNA (RPF) was carried out with standard Illumina rna seq methodology.
RNA-seq reads were processed with tools from the FASTX-Toolkit (fastq_quality_trimmer, fastx_clipper and fastx_trimmer). Unprocessed and processed reads were evaluated for a variety of quality measures using FastQC. Processed reads were mapped to the human genome using Tophat. Gene-by-gene assessment of the number of fragments strictly and uniquely mapping to the coding region of each gene was conducted using HTSeq-count, a component of the HTSeq package. Differential analyses of the transforming effect of TGF-β on fibroblasts and effect of PAMi treatment on this transformation were carried out with the software packages DESeq for transcription (RNA counts) and translational rate (RPF counts) and BABEL for translational efficiency based upon ribosomal occupancy as a function of RNA level (RNA and RPF counts). Genes with low counts in either RPF or RNA were excluded from differential analyses. Pathway and network analyses of differential data was conducted using Ingenuity Pathway Analysis (IPA).

[5] = tested on: Normal human lung fibroblasts; assay: Procollagen Type 1 C-Peptide (PIP EIA) in TGF-β treated fibroblasts; format: cell-based; details: 10 ng/ml TGF-β, 24 hours
Description: Normal human lung fibroblasts (Lonza #CC-2512) were cultured in DMEM+10% FBS supplemented with Penicillin, Streptomycin and Glutamax (Invitrogen) at 37° C. in a humidified incubator with 5% CO2. Cell passage numbers 2 through 5 were used for all experiments.
as §1
Culture Media was collected, centrifuged to pellet cellular debris, and stored at −80° C. Procollagen Type 1 C-Peptide (PIPC) was quantified using the (PIP) EIA kit (Clontech Cat# MK101) according to manufacturer's instructions.

## CC(C)n1nc(-c2cc3cc(O)ccc3[nH]2)c2c(N)ncnc21 [PP242]
[1]
  phosphorylation of S6K, S6 and 4EBP1: substantially inhibited
[2]; PP242 2.5 μM, 3-hour treatment
  TrlEff, ACD: −1.02
  TrlEff, C17orf28: −0.20
  TrlEff, CCNA1: 0.66
  TrlEff, DDX51: −0.51
  TrlEff, DGCR2: 0.02
  TrlEff, EEF1A1: −3.53
  TrlEff, GTPBP3: −0.83
  TrlEff, MAPK6: −0.29
  TrlEff, MAPKAPK2: 0.92
  TrlEff, NFATC21P: 0.35
  TrlEff, NR2F1: −0.09
  TrlEff, PRKD3: 0.68
  TrlEff, RBPJ: −0.03
  TrlEff, RPL28: −3.48
  TrlEff, RPL39: −2.53
  TrlEff, RPS20: −2.78
  TrlEff, RPS27: −3.35
  TrlEff, SDCCAG10: 0.23
  TrlEff, UBTD2: 0.27
  TrlEff, UCHL5: 0.40
  TrlEff, VHL: 0.52
  mRNA, ACD: 0.20
  mRNA, ARID5B: 1.93 log^2 fold change
  mRNA, BCL6: 1.59 log^2 fold change
  mRNA, BRIX1: −1.51 log^2 fold change
  mRNA, C17orf28: 0.21
  mRNA, CCNA1: −0.33
  mRNA, CTGF: 1.80 log^2 fold change
  mRNA, CYR61: 1.47 log^2 fold change
  mRNA, DDX51: 0.17
  mRNA, DGCR2: 0.05
  mRNA, EEF1A1: 0.29
  mRNA, FGFBP1: −1.75 log^2 fold change
  mRNA, FOXA1: 1.45 log^2 fold change
  mRNA, GDF15: 3.02 log^2 fold change
  mRNA, GTPBP3: 0.15
  mRNA, HBP1: 1.88 log^2 fold change
  mRNA, KLF6: 1.75 log^2 fold change
  mRNA, MAPK6: 0.10
  mRNA, MAPKAPK2: −0.22
  mRNA, MT2A: 1.47 log^2 fold change
  mRNA, NFATC21P: 0.08
  mRNA, NR2F1: 0.87
  mRNA, PLAU: 2.04 log^2 fold change
  mRNA, PRKD3: −0.46
  mRNA, RBPJ: 0.17
  mRNA, RND3: 1.78 log^2 fold change
  mRNA, RPL28: 0.55
  mRNA, RPL39: −0.42
  mRNA, RPS20: −0.10
  mRNA, RPS27: 0.06
  mRNA, SDCCAG10: −0.37
  mRNA, SOX4: 1.51 log^2 fold change
  mRNA, UBTD2: 0.25
  mRNA, UCHL5: −0.51
  mRNA, VHL: 0.43
[2]; gene ACTG1
  TrlEff: −1.40
  mRNA: 0.28
[2]; gene AGRN
  mRNA: 0.50
[2]; gene ALKBH7
  mRNA: 0.51
[2]; gene AP2A1
  mRNA: 0.42
[2]; gene ARD1A
  mRNA: 0.03
[2]; gene ATP5G2
  mRNA: 0.17
[2]; gene C21orf66
  mRNA: −0.31
[2]; gene CCNI
  mRNA: 0.24
[2]; gene CD44
  mRNA: 0.43
[2]; gene CIRBP
  mRNA: 0.54
[2]; gene CLPTM1
  mRNA: 0.41
[2]; gene COL6A2
  mRNA: 0.57
[2]; gene CRTAP
  TrlEff: −2.50
  mRNA: 0.33
[2]; gene ECSIT
  mRNA: 0.26
[2]; gene EEF1A2
  mRNA: 0.40
[2]; gene EEF1B2
  TrlEff: −1.70
[2]; gene EEF1D
  mRNA: 0.35
[2]; gene EEF1G
  mRNA: 0.15
[2]; gene EEF2
  TrlEff: −3.60
[2]; gene EIF3H
  mRNA: 0.09
[2]; gene EIF3L
  mRNA: 0.21
[2]; gene EIF4B
  mRNA: 0.61
[2]; gene EVPL
  TrlEff: −0.79
  mRNA: 0.38
[2]; gene FAM83H
  mRNA: 0.33
[2]; gene FAM128B
  mRNA: 0.43
[2]; gene FASN
  mRNA: 0.30
[2]; gene GAPDH
  TrlEff: −1.90
[2]; gene GLTSCR2
  mRNA: 0.70
[2]; gene GNB2L1
  mRNA: 0.27
[2]; gene HNRNPA1
  mRNA: 0.27
[2]; gene HSPA8
  mRNA: −0.40
[2]; gene IMPDH2
  mRNA: 0.21
[2]; gene LAMA5
  TrlEff: −0.94
  mRNA: 0.40
[2]; gene LMF2
  mRNA: 0.62
[2]; gene MTA1
  mRNA: 0.21
[2]; gene NCLN
  TrlEff: −0.76
  mRNA: 0.29
[2]; gene PABPC1
  mRNA: 0.16
[2]; gene PABPC4
  mRNA: 0.40
[2]; gene PACS1
  mRNA: 0.45
[2]; gene PFDN5
  mRNA: 0.04
[2]; gene PGLS
  mRNA: 0.21
[2]; gene PGM1
  mRNA: 0.23
[2]; gene PNKP
  TrlEff: −0.79
  mRNA: 0.33
[2]; gene PTGES2
  TrlEff: −0.65
  mRNA: 0.17
[2]; gene RABGGTB
  mRNA: 0.20
[2]; gene RPL3
  mRNA: 0.22
[2]; gene RPL4
  TrlEff: −1.50
  mRNA: 0.10
[2]; gene RPL7
  mRNA: 0.01
[2]; gene RPL7A
  TrlEff: −2.30
  mRNA: 0.15
[2]; gene RPL9
  mRNA: −0.08
[2]; gene RPL10
  mRNA: 0.25
[2]; gene RPL10A
  mRNA: 0.14
[2]; gene RPL11
  mRNA: 0.14
[2]; gene RPL12
  mRNA: 0.12
[2]; gene RPL13
  mRNA: 0.26
[2]; gene RPL13A
  TrlEff: −3.10
  mRNA: 0.30
[2]; gene RPL15
  TrlEff: −1.20
  mRNA: 0.19
[2]; gene RPL17
  TrlEff: −1.80
[2]; gene RPL18A
  mRNA: 0.23
[2]; gene RPL19
  mRNA: 0.11
[2]; gene RPL21
  mRNA: −0.04
[2]; gene RPL22
  mRNA: 0.00
[2]; gene RPL22L1
  TrlEff: −1.90
[2]; gene RPL24
  mRNA: 0.00
[2]; gene RPL26
  TrlEff: −2.00
  mRNA: 0.02
[2]; gene RPL27
  mRNA: −0.13
[2]; gene RPL27A
  mRNA: 0.07
[2]; gene RPL28
  mRNA: 0.22
[2]; gene RPL31
  TrlEff: −2.10
  mRNA: 0.05
[2]; gene RPL32
  mRNA: 0.11
[2]; gene RPL34
  mRNA: 0.04
[2]; gene RPL36A
  mRNA: −0.01
[2]; gene RPL37A
  mRNA: 0.01
[2]; gene RPL39
  mRNA: −0.15
[2]; gene RPL41
  mRNA: −0.01
[2]; gene RPLP0
  mRNA: 0.12
[2]; gene RPLP1
  mRNA: 0.12
[2]; gene RPLP2
  TrlEff: −2.10
  mRNA: 0.14
[2]; gene RPS2
  mRNA: 0.20
[2]; gene RPS3
  mRNA: 0.24
[2]; gene RPS3A
  mRNA: −0.06
[2]; gene RPS4X
  mRNA: 0.12
[2]; gene RPS5
  mRNA: 0.23
[2]; gene RPS6
  mRNA: −0.02
[2]; gene RPS7
  TrlEff: -1151
  mRNA: −0.04
[2]; gene RPS9
  mRNA: 0.34
[2]; gene RPS12
  TrlEff: −3.00
  mRNA: 0.04
[2]; gene RPS13
  mRNA: −0.08
[2]; gene RPS14
  TrlEff: −1.50
  mRNA: 0.16
[2]; gene RPS15
  mRNA: 0.21
[2]; gene RPS15A
  mRNA: 0.07
[2]; gene RPS19
  mRNA: 0.23
[2]; gene RPS20
  mRNA: −0.01
[2]; gene RPS21
  mRNA: 0.09
[2]; gene RPS25
  mRNA: −0.04
[2]; gene RPS27
  mRNA: 0.07
[2]; gene RPS27A
  mRNA: −0.04
[2]; gene RPS28
  mRNA: 0.28
[2]; gene RPS29
  mRNA: 0.11
[2]; gene SLC19A1
  mRNA: 0.10
[2]; gene SLC25A5
  TrlEff: −1.80
[2]; gene TKT
  mRNA: 0.33
[2]; gene TSC2
  mRNA: 0.21
[2]; gene UBA52
  mRNA: 0.18
[2]; gene VIM
  mRNA: 0.67
[2]; gene YB1
  TrlEff: −2.30
  mRNA: 0.24
[3]
  phosphorylation of 4EBP: some phosphorylation of 4EBP was observed

## TGF-β
[4]; fibroblasts treated with TGF-β, 141 pathway genes
  genes in the pathway having an increase in translational efficiency: 118 of the 141
[4]; fibroblasts upon TGF-β treatment
  mean translational efficiency of the 141 pathway-associated genes: −1.05 log 2 relative to population mean
[4]; fibroblasts, TGF-β
  mean increase in translational efficiency, all genes in the pathway (printed: these 12 genes): 0.65 log 2
  mean increase in translational efficiency, subset of 12 genes: 1.3 log 2
[5]
  increase in procollagen production: approximately 7 fold
